From patent US20240424426A1, “SOLVENTS FOR SELECTIVE COMPLEXATION OF METAL CATIONS” (THE BOARD OF TRUSTEES OF THE UNIVERSITY OF ALABAMA, priority 2023, published 2024)

How the values were obtained:
[1] = Liquid-liquid extraction of Li^+ from aqueous LiCl/NaCl solution, ion-selective electrode analysis; settings: 3 mL neat compound mixed with 3 mL aqueous solution containing 100 ppm LiCl and 100 ppm NaCl; aqueous phase analyzed by ion-selective electrode
Procedure: (§1) 3 ml of the compound [F·Me·Me] was added neat to 3 mL of an aqueous solution containing 100 ppm LiCl and 100 ppm NaCl. After vigorous mixing of the organic and aqueous phases in a separatory funnel, the phases were separated, and the aqueous phase was analyzed using ion-selective electrodes for both Li^+ and Na^+.

[2] = Liquid-liquid extraction of Na^+ from aqueous LiCl/NaCl solution, ion-selective electrode analysis; settings: 3 mL neat compound mixed with 3 mL aqueous solution containing 100 ppm LiCl and 100 ppm NaCl; aqueous phase analyzed by ion-selective electrode
Procedure: as §1

SMILES: COCCOCC(COCC(F)(F)F)OCCOC (centres unmarked) [[F·Me·Me]]
- Li^+ extracted by the compound [1]: 26.6%
- Na^+ extracted by the compound [2]: 7.3%
